The values that follow come from ChEMBL document CHEMBL1142047, “Identification of a 5-HT4 receptor antagonist clinical candidate through side-chain modification” (Bioorg Med Chem Lett, 2005).

Data set [1] is described as follows: Time taken for half of the concentration to degrade upon intravenous administration (n=7; dose 0.25 mg/kg iv). To be noted: dog, in vivo.
The nature of data set [2]: (§1) Bioavailability in dog (dose 0.25 mg/kg i.v. and 0.5 mg/kg p.o.). To be noted: in vivo, po.
Data set [3] is described as follows: Volume of distribution in dog (n=7; dose 0.25 mg/kg iv or 0.5 mg/kg po). To be noted: in vivo.
Data set [4] can be described thus: in vivo. To be noted: dog, plasma, iv, 0.25 mg/kg.
For data set [5], the target named is 5-hydroxytryptamine receptor 4 (Homo sapiens, UniProt Q13639). Put plainly: Inhibitory constant for human cloned 5-HT4 receptor.
5-hydroxytryptamine receptor 4, sequence (Q13639 whole entry): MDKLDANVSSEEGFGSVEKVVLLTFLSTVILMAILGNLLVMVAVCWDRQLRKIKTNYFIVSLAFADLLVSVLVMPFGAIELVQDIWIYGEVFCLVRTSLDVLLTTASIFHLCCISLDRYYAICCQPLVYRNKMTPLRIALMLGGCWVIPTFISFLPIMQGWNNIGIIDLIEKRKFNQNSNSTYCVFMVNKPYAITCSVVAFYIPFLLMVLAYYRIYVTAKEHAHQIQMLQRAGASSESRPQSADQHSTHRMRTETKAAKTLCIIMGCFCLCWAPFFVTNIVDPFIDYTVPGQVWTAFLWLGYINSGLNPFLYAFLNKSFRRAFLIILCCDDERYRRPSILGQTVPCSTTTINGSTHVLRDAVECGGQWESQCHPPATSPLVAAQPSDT
Data set [6] in a line: Time taken for half of the concentration to degrade upon oral administration. In kind it is ADME, organism-based, Canis lupus familiaris. To be noted: dog, in vivo.
A short description of data set [7]: Time taken for half of the concentration to degrade upon oral administration (n=7; 0.5 mg/kg po). Also on record: dose 0.5 mg/kg, route oral. To be noted: dog, in vivo. The class given is ADME, organism-based, Canis lupus familiaris.
Data set [8] deals with Histamine H1 receptor (Rattus norvegicus, UniProt P31390).
Histamine H1 receptor, sequence (P31390 whole entry): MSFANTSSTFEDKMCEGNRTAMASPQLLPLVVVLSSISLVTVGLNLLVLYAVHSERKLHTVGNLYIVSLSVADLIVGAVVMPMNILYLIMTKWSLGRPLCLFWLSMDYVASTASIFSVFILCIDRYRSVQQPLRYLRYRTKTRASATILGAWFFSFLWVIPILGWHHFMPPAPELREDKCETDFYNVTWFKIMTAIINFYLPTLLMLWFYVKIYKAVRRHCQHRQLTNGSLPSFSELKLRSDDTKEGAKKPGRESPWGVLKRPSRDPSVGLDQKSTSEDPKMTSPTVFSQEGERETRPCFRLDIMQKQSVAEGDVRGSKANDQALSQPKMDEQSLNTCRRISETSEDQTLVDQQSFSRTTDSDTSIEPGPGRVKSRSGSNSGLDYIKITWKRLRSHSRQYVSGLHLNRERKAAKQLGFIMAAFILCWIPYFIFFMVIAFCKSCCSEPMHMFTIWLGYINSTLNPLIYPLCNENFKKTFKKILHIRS
The nature of data set [9]: as §1. To be noted: in vivo, po. In kind it is ADME, organism-based, Canis lupus familiaris.
A short description of data set [10]: Time taken for half of the concentration to degrade upon intravenous administration (n=8; dose 0.25 mg/kg iv). The class given is ADME, organism-based, Canis lupus familiaris. Details: dose 0.25 mg/kg, route intravenous. The conditions noted are these: dog, in vivo.
Data set [11] can be described thus: Volume of distribution in dog (n=8; dose 0.25 mg/kg iv or 0.5 mg/kg po). In kind it is ADME, organism-based, Canis lupus familiaris. The conditions noted are these: in vivo, read-out: Vz.
Data set [12] can be described thus: Plasma clearance in dog (n=8; dose 0.25 mg/kg iv or 0.5 mg/kg po). The class given is ADME, organism-based, Canis lupus familiaris.
Data set [13] is described as follows: in vivo. To be noted: rat.
Data set [14] is described as follows: Half-life in human. The class given is ADME.
The nature of data set [15]: Bioavailability in rat. The conditions noted are these: in vivo. In kind it is ADME, organism-based.
Data set [16] is described as follows: Time taken for half of the concentration to degrade upon intravenous administration (n=12; dose 0.25 mg/kg iv). To be noted: dog, in vivo.
A short description of data set [17]: Volume of distribution in dog (n=12; dose 0.25 mg/kg iv or 0.5 mg/kg po). The conditions noted are these: in vivo.
A short description of data set [18]: in vivo. The conditions noted are these: dog, plasma, iv, 0.25 mg/kg. The source holds these as a separate data set.
Data set [19] is described as follows: Intrinsic clearance of compound in dog liver microsomes. In general terms: Liver microsomes are a subcellular fraction often used to study metabolism.
A short description of data set [20]: Percentage bioavailability (n=12; dose 0.25 mg/kg iv or 0.5 mg/kg po). The class given is ADME, organism-based, Canis lupus familiaris. To be noted: dog, in vivo.
Data set [21] is described as follows: Intrinsic clearance of compound in human liver microsomes.

Turning to `CC1(C)CCN(S(=O)(=O)CCCN2CCC(CNC(=O)c3cccc4c3OCCO4)CC2)CC1`, in data set [1], the half-life was 0.7 h. In addition, in [2], the bioavailability came to 100%. Moreover, in data set [3], the Vd stood at 1.5 L/kg. The compound also showed a clearance in data set [4] of 27 mL/min/kg. This compound had a Ki in [5] of 126 pM.

As for `CC(=O)N1CCN(S(=O)(=O)CCCN2CCC(CNC(=O)c3cccc4c3OCCO4)CC2)CC1`, the half-life is 1.3 h in [1] and 4.6 h in [6]. Moreover, the bioavailability in data set [2] stood at 51%. The compound further registered a Vd in data set [3] of 0.7 L/kg. Also, the clearance in data set [4] is 6 mL/min/kg. The compound also showed a Ki in data set [5] of 126 pM.

`CS(=O)(=O)N1CCN(S(=O)(=O)CCCN2CCC(CNC(=O)c3cccc4c3OCCO4)CC2)CC1`: the half-life in data set [1] was 1.2 h; in data set [7] it was 3.6 h. The compound also gave a bioavailability in [2] of 90%. Further, the Vd in [3] came out at 0.3 L/kg. This compound also had a Ki in data set [5] of 316 pM.

As to `CC(C)S(=O)(=O)N1CCN(S(=O)(=O)CCCN2CCC(CNC(=O)c3cccc4c3OCCO4)CC2)CC1`, the Ki in data set [5] is 126 pM.

Consider `CCCC1CCN(S(=O)(=O)CCCN2CCC(CNC(=O)c3cccc4c3OCCO4)CC2)CC1`, for which the half-life in data set [1] was 0.5 h. Besides, the bioavailability in data set [2] is 15%. Besides, in data set [3], the Vd is 1.4 L/kg. This compound gave a clearance in [4] of 33 mL/min/kg. The same compound had an inhibitory constant (Ki) in data set [5] of 63.1 pM.

On to `CN1CCN(S(=O)(=O)CCCN2CCC(CNC(=O)c3cccc4c3OCCO4)CC2)CC1`, for which, in data set [8], the IC50 was 100000 pM. The compound also showed a Ki in data set [5] of 251 pM.

As to `O=C(NCC1CCN(CCCS(=O)(=O)N2CCN(c3ccc(F)cc3)CC2)CC1)c1cccc2c1OCCO2`, in [5], the Ki is 50.1 pM. This lies in the picomolar range.

For the compound `O=C(NCC1CCN(CCCS(=O)(=O)N2CCNCC2)CC1)c1cccc2c1OCCO2`, in data set [9], the bioavailability was found to be 33%. The compound also gave a half-life in data set [10] of 37 h. Also, in [11], the Vd amounted to 34 L/kg. This compound had a Ki in [5] of 158 pM. In [12], this compound registered a clearance of 11 mL/min/kg.

Turning to `O=C(NCC1CCN(CCCS(=O)(=O)N2CCN(C(=O)c3ccco3)CC2)CC1)c1cccc2c1OCCO2`, in [9], the bioavailability was determined as 64%. This compound also gave a half-life in data set [10] of 1 h. Moreover, the Vd in data set [11] stood at 0.2 L/kg. Also, in data set [5], the Ki was 100 pM. In [12], this compound displayed a clearance of 2 mL/min/kg.

In turn, `O=C(NCC1CCN(CCCS(=O)(=O)N2CCN(C3CCCC3)CC2)CC1)c1cccc2c1OCCO2` returned a bioavailability in data set [9] of 42%. This compound gave a half-life in data set [10] of 2.9 h. Also, in data set [11], the Vd came to 9.3 L/kg. The compound also showed a Ki in data set [5] of 15.8 pM. In addition, the clearance in data set [12] worked out at 37 mL/min/kg.

The compound `CCCN1CCN(S(=O)(=O)CCCN2CCC(CNC(=O)c3cccc4c3OCCO4)CC2)CC1` had a Ki in data set [5] of 31.6 pM.

`CCC(C)N1CCN(S(=O)(=O)CCCN2CCC(CNC(=O)c3cccc4c3OCCO4)CC2)CC1` (configuration not stated): the Ki in [5] is 25.1 pM.

Turning to `O=C(NCC1CCN(CCCS(=O)(=O)N2CCN(Cc3cccnc3)CC2)CC1)c1cccc2c1OCCO2`, in data set [5], the Ki was 158 pM. Compared with the last compound, the Ki is about 6.3-fold higher.

For `O=C(NCC1CCN(CCCS(=O)(=O)N2CCCCC2)CC1)c1cccc2c1OCCO2`, in data set [5], affinity was put at a Ki of 200 pM.

On to `CCCCN1CCC(CNC(=O)c2cccc3c2OCCO3)CC1`, for which the half-life in data set [13] is less than 1 h; in data set [14] it was 60 h. The Ki in data set [5] is 794 pM. For the same compound, in [15], the bioavailability was determined as 18%.

With `CC(C)N1CCN(S(=O)(=O)CCCN2CCC(CNC(=O)c3cccc4c3OCCO4)CC2)CC1`, in data set [1], the half-life is 3 h. For the same compound, in data set [2], the bioavailability was determined as 72%. In data set [3], this compound came in with a Vd of 3.6 L/kg. Also, the clearance in data set [4] amounted to 14 mL/min/kg. In [5], this compound gave a Ki of 31.6 pM.

In data set [1], `CCCS(=O)(=O)N1CCN(S(=O)(=O)CCCN2CCC(CNC(=O)c3cccc4c3OCCO4)CC2)CC1` gave a half-life of 0.7 h. In data set [2], this compound came in with a bioavailability of 82%. This compound gave a Vd in data set [3] of 0.7 L/kg. The same compound displayed a clearance in data set [4] of 12 mL/min/kg. Besides, the affinity in [5] corresponds to a Ki of 100 pM.

`O=C(NCC1CCN(CCCS(=O)(=O)N2CCN(S(=O)(=O)N3CCCC3)CC2)CC1)c1cccc2c1OCCO2` gave a Ki in data set [5] of 79.4 pM. That is a picomolar value.

Take `O=C(NCC1CCN(CCCS(=O)(=O)N2CCN(c3ncccn3)CC2)CC1)c1cccc2c1OCCO2`: the half-life in data set [1] is 0.7 h. In data set [2], this compound displayed a bioavailability of 65%. In [3], this compound showed a Vd of 0.3 L/kg. This compound also returned a clearance in data set [4] of 5 mL/min/kg. This compound also gave a Ki in data set [5] of 251 pM.

For `O=C(NCC1CCN(CCCS(=O)(=O)N2CCC3(CCCC3)CC2)CC1)c1cccc2c1OCCO2`, the Ki in data set [5] was 25.1 pM. This counts as picomolar.

`O=C(NCC1CCN(CCCS(=O)(=O)N2CCOCC2)CC1)c1cccc2c1OCCO2` gave a bioavailability in [2] of 76%. This compound also showed a half-life in data set [16] of 1 h. This compound also gave a Ki in [5] of 398 pM. The same compound showed a Vd in data set [17] of 1.6 L/kg. The clearance in data set [18] came to 7 mL/min/kg.

Turning to `O=C(NCC1CCN(CCCS(=O)(=O)N2CCN(S(=O)(=O)c3ccc(F)cc3)CC2)CC1)c1cccc2c1OCCO2`, the Ki in data set [5] was 31.6 pM.

In turn, `CCN1CCN(S(=O)(=O)CCCN2CCC(CNC(=O)c3cccc4c3OCCO4)CC2)CC1` gave a half-life in data set [1] of 3.1 h. In addition, the bioavailability in data set [2] worked out at 94%. Also, the Vd in [3] amounted to 3.6 L/kg. In addition, affinity in [5] was put at a Ki of 50.1 pM.

For `CCCCN1CCC(CNC(=O)c2c3n(c4ccccc24)CCCO3)CC1` [PIBOSEROD], the microsomal CLint came to 4 µL/min/mg in [19] and 5 µL/min/mg in data set [21]. Further, in data set [16], the half-life was 7.1 h. In data set [20], this compound returned a bioavailability of 71%. In addition, the Ki in data set [5] is 251 pM. In [17], this compound displayed a Vd of 5 L/kg. Further, in data set [18], the clearance is 8 mL/min/kg.

Usually half-life stands for how long it takes for the measured level to halve. A lower half-life goes with rapid decline. Usually bioavailability stands for the share of a dose that reaches the circulation, judged against a reference dose that is usually intravenous. The low end stands for little systemic uptake, the high end for much systemic uptake. The term Ki denotes a dissociation constant, usually derived from enzyme kinetics or from competition with a known ligand. Low values mean tighter binding, high ones weaker binding. A word on the IC50: it is the point on the concentration scale where inhibition reaches its midpoint. Low values mean higher potency, high ones lower potency. For orientation: microsomal CLint means a measure of how fast metabolising enzymes remove a compound, apart from limits set by blood flow. A lower microsomal CLint goes with greater metabolic stability.
